This note sets out measurements from patent US11173162B2, “Bicyclic heterocycles as FGFR4 inhibitors” (Incyte Corporation, priority 2015, dated 2021).

Test [1] concerns the target FGFR4 (Homo sapiens (Human), UniProt P22455). Briefly: FGFR Enzymatic Assay (FRET peptide phosphorylation), FGFR4. Format: biochemical. On the procedure: (§1) The inhibitor potency of the exemplified compounds was measured in an enzyme assay that measures peptide phosphorylation using FRET measurements to detect product formation. Inhibitors were serially diluted in DMSO and a volume of 0.5 μL was transferred to the wells of a 384-well plate.
The enzymes were purchased from Millipore or Invitrogen.
(§2) GraphPad prism3 was used to analyze the data.

Test [2] relates to FGFR3 enzyme. Kind of test: FGFR Enzymatic Assay (FRET peptide phosphorylation), FGFR3. It is filed as biochemical. Particulars: IC50 ratio showing FGFR3 selectivity; Table 2A, pre-incubated for 4 hours. The protocol:
as §1, §2

[3] abbreviates: IC50 ratio showing FGFR4 selectivity, Table 2, pre-incubated for 4 hours.
Setting [4] is: ratio of IC50 data showing FGFR4 selectivity, Table 4, pre-incubated for 5 to 10 minutes.

FGFR4, sequence (P22455 22-802): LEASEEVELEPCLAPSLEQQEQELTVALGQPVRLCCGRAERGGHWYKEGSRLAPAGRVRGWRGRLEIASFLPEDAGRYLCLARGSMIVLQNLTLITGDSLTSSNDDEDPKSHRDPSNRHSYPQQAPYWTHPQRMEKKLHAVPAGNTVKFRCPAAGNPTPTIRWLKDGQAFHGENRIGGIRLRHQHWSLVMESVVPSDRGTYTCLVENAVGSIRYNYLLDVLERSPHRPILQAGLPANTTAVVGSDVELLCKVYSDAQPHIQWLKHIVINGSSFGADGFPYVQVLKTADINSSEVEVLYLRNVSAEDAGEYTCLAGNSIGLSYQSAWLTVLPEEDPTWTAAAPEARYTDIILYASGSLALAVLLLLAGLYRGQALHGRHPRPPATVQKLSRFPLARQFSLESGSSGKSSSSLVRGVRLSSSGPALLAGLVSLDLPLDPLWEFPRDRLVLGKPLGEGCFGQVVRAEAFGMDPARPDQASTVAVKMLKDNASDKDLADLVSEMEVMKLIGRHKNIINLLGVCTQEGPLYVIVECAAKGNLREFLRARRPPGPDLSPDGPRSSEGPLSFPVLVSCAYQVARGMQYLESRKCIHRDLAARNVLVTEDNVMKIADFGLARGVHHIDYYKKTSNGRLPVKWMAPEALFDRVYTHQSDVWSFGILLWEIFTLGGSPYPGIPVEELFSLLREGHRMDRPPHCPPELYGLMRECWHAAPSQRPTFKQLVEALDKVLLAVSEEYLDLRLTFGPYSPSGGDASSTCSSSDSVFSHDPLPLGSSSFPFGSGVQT

On to `COc1cc(OC)c(F)c(N2Cc3cnc(-c4cc(N)ccc4C)cc3C3(CC3)C2=O)c1F` [Example 1, 6′-(5-amino-2-methylphenyl)-2′-(2,6-difluoro-3,5-dimethoxyphenyl)-1^1H-spiro[cyclopropane-1,4′-[2,7]naphthyridin]-3′(2′H)-one], for which, in test [1] (setting [3]), the FGFR1/FGFR4 is greater than 25, the FGFR2/FGFR4 was greater than 25 and the FGFR3/FGFR4 is reported as greater than 25. For the same molecule, in test [1] (setting [4]), the FGFR1/FGFR4 is on record as greater than 25, the FGFR2/FGFR4 is listed as greater than 25 and the FGFR3/FGFR4 is recorded as greater than 50.

For `COc1cc(OC)c(F)c(N2Cc3cnc(-c4cc(N)c(F)cc4C)cc3C3(CC3)C2=O)c1F` [Example 2, 6′-(5-amino-4-fluoro-2-methylphenyl)-2′-(2,6-difluoro-3,5-dimethoxyphenyl)-1′H-spiro[cyclopropane-1,4′-[2,7]naphthyridin]-3′(2′H)-one], in test [1] (setting [3]), the FGFR1/FGFR4 was greater than 10, the FGFR2/FGFR4 is given as greater than 10 and the FGFR3/FGFR4 is listed as greater than 10. Besides, in test [1] (setting [4]), the FGFR1/FGFR4 was greater than 10, the FGFR2/FGFR4 is reported as greater than 10 and the FGFR3/FGFR4 was greater than 10.

On to `COc1cc(OC)c(F)c(N2Cc3cnc(-c4cncc(N)c4)cc3C3(CC3)C2=O)c1F` [Example 4, 6′-(5-aminopyridin-3-yl)-2′-(2,6-difluoro-3,5-dimethoxyphenyl)-1′H-spiro[cyclopropane-1,4′-[2,7]naphthyridin]-3′(2′H)-one], for which, in test [1] (setting [3]), the FGFR1/FGFR4 is on record as greater than 25, the FGFR2/FGFR4 is greater than 10 and the FGFR3/FGFR4 is greater than 10. In test [1] (setting [4]), the FGFR1/FGFR4 is greater than 10, the FGFR2/FGFR4 is reported as greater than 10 and the FGFR3/FGFR4 is given as greater than 5. Moreover, the FGFR1/FGFR3 in test [2] is given as greater than 1.

As to `COc1cc(OC)c(F)c(N2Cc3cnc(-c4cncc(N5CCOCC5)c4)cc3C3(CC3)C2=O)c1F` [Example 6, 2′-(2,6-difluoro-3,5-dimethoxyphenyl)-6′-(5-morpholinopyridin-3-yl)-1′H-spiro[cyclopropane-1,4′-[2,7]naphthyridin]-3′(2′H)-one], in test [1] (setting [3]), the FGFR1/FGFR4 is on record as greater than 100, the FGFR2/FGFR4 is listed as greater than 100 and the FGFR3/FGFR4 is reported as greater than 25. In addition, in test [1] (setting [4]), the FGFR1/FGFR4 is greater than 100, the FGFR2/FGFR4 was greater than 100 and the FGFR3/FGFR4 is greater than 50. In addition, the FGFR1/FGFR3 in test [2] was greater than 3.

For the molecule `COc1cc(OC)c(F)c(N2Cc3cnc(-c4nn(C)cc4C#N)cc3C3(CC3)C2=O)c1F` [Example 172, 3-(2′-(2,6-difluoro-3,5-dimethoxyphenyl)-3′-oxo-2′,3′-dihydro-1′H-spiro[cyclopropane-1,4′-[2,7]naphthyridine]-6′-yl)-1-methyl-1H-pyrazole-4-carbonitrile], in test [1] (setting [3]), the FGFR1/FGFR4 was greater than 50, the FGFR2/FGFR4 is given as greater than 25 and the FGFR3/FGFR4 is listed as greater than 10.

`COc1cc(OC)c(F)c(N2Cc3cnc(-c4cncc(Cl)c4)cc3C3(CC3)C2=O)c1F` [Example 11, 6′-(5-chloropyridin-3-yl)-2′-(2,6-difluoro-3,5-dimethoxyphenyl)-1′H-spiro[cyclopropane-1,4′-[2,7]naphthyridin]-3′(2′H)-one]: in test [1] (setting [3]), the FGFR1/FGFR4 was greater than 25, the FGFR2/FGFR4 is listed as greater than 25 and the FGFR3/FGFR4 is listed as greater than 10. In addition, in test [1] (setting [4]), the FGFR1/FGFR4 is on record as greater than 50, the FGFR2/FGFR4 was greater than 20 and the FGFR3/FGFR4 is recorded as greater than 25. Also, the FGFR1/FGFR3 in test [2] was greater than 1.

In the case of `COc1cc(OC)c(F)c(N2Cc3cnc(-c4cncc(-n5ccnc5)c4)cc3C3(CC3)C2=O)c1F` [Example 12, 6′-(5-(1H-imidazol-1-yl)pyridin-3-yl)-2′-(2,6-difluoro-3,5-dimethoxyphenyl)-1′H-spiro[cyclopropane-1,4′-[2,7]naphthyridin]-3′(2′H)-one], in test [1] (setting [3]), the FGFR1/FGFR4 is recorded as greater than 50, the FGFR2/FGFR4 is reported as greater than 25 and the FGFR3/FGFR4 is given as greater than 10. Moreover, in test [1] (setting [4]), the FGFR1/FGFR4 was greater than 50, the FGFR2/FGFR4 was greater than 25 and the FGFR3/FGFR4 was greater than 20. The FGFR1/FGFR3 in test [2] is recorded as greater than 3.

For `COc1cc(OC)c(F)c(N2Cc3cnc(-c4cccnc4)cc3C3(CC3)C2=O)c1F` [Example 9, 2′-(2,6-difluoro-3,5-dimethoxyphenyl)-6′-(pyridin-3-yl)-1′H-spiro[cyclopropane-1,4′-[2,7]naphthyridin]-3′(2′H)-one], in test [1] (setting [3]), the FGFR1/FGFR4 is on record as greater than 10, the FGFR2/FGFR4 is given as greater than 1 and the FGFR3/FGFR4 is reported as greater than 1. Moreover, in test [1] (setting [4]), the FGFR1/FGFR4 was greater than 5, the FGFR2/FGFR4 is greater than 1 and the FGFR3/FGFR4 is listed as greater than 1. Also, in test [2], the FGFR1/FGFR3 is greater than 3.

`COc1cncc(-c2cc3c(cn2)CN(c2c(F)c(OC)cc(OC)c2F)C(=O)C32CC2)c1` [Example 10, 2′-(2,6-difluoro-3,5-dimethoxyphenyl)-6′-(5-methoxypyridin-3-yl)-1′H-spiro[cyclopropane-1,4′-[2,7]naphthyridin]-3′(2′H)-one]: in test [1] (setting [3]), the FGFR1/FGFR4 is reported as greater than 25, the FGFR2/FGFR4 is given as greater than 25 and the FGFR3/FGFR4 is listed as greater than 10. Also, in test [1] (setting [4]), the FGFR1/FGFR4 is given as greater than 25, the FGFR2/FGFR4 was greater than 10 and the FGFR3/FGFR4 is listed as greater than 10. The FGFR1/FGFR3 in test [2] is recorded as greater than 1.

Regarding `COc1cc(OC)c(F)c(N2Cc3cnc(-c4nn(CC#N)cc4C#N)cc3C3(CC3)C2=O)c1F` [Example 174, 1-(cyanomethyl)-3-(2′-(2,6-difluoro-3,5-dimethoxyphenyl)-3′-oxo-2′,3′-dihydro-1′H-spiro[cyclopropane-1,4′-[2,7]naphthyridine]-6′-yl)-1H-pyrazole-4-carbonitrile], in test [1] (setting [3]), the FGFR1/FGFR4 is greater than 100, the FGFR2/FGFR4 is given as greater than 10 and the FGFR3/FGFR4 was greater than 25.

For the molecule `COc1cc(OC)c(F)c(N2Cc3cnc(-c4[nH]ncc4C#N)cc3C3(CC3)C2=O)c1F` [Example 171, 5-(2′-(2,6-difluoro-3,5-dimethoxyphenyl)-3′-oxo-2′,3′-dihydro-1′H-spiro[cyclopropane-1,4′-[2,7]naphthyridine]-6′-yl)-1H-pyrazole-4-carbonitrile], in test [1] (setting [3]), the FGFR1/FGFR4 is given as greater than 10, the FGFR2/FGFR4 is greater than 10 and the FGFR3/FGFR4 is greater than 10.

For the molecule `COc1cc(OC)c(F)c(N2Cc3cnc(-c4ccncc4)cc3C3(CC3)C2=O)c1F` [Example 185, 2′-(2,6-difluoro-3,5-dimethoxyphenyl)-6′-(pyridin-4-yl)-1′H-spiro[cyclopropane-1,4′-[2,7]naphthyridin]-3′(2′H)-one], in test [2], the FGFR1/FGFR3 is greater than 3 and the FGFR4/FGFR3 is reported as greater than 3.

As for `COc1cc(OC)c(F)c(N2Cc3cnc(-c4nn(CC5CCOCC5)cc4C#N)cc3C3(CC3)C2=O)c1F` [Example 173, 3-(2′-(2,6-difluoro-3,5-dimethoxyphenyl)-3′-oxo-2′,3′-dihydro-1′H-spiro[cyclopropane-1,4′-[2,7]naphthyridine]-6′-yl)-1-((tetrahydro-2H-pyran-4-yl)methyl)-1H-pyrazole-4-carbonitrile], in test [1] (setting [3]), the FGFR1/FGFR4 was greater than 100, the FGFR2/FGFR4 is recorded as greater than 100 and the FGFR3/FGFR4 is recorded as greater than 50.

In the case of `CCN1C(=O)N(c2c(F)c(OC)cc(OC)c2F)Cc2cnc(-c3cn(CCN4CCOCC4)nc3C)cc21` [Example 49, 3-(2,6-difluoro-3,5-dimethoxyphenyl)-1-ethyl-7-(3-methyl-1-(2-morpholinoethyl)-1H-pyrazol-4-yl)-3,4-dihydropyrido[4,3-d]pyrimidin-2(1H)-one], in test [2], the FGFR1/FGFR3 is recorded as greater than 5 and the FGFR4/FGFR3 is greater than 1.

As for `COc1cc(OC)c(F)c(N2Cc3cnc(-c4cc(N)ccc4C#N)cc3C3(CC3)C2=O)c1F` [Example 3, 4-amino-2-(2′-(2,6-difluoro-3,5-dimethoxyphenyl)-3′-oxo-2′,3′-dihydro-1′H-spiro[cyclopropane-1,4′-[2,7]naphthyridine]-6′-yl)benzonitrile], in test [1] (setting [3]), the FGFR1/FGFR4 is greater than 25, the FGFR2/FGFR4 is greater than 25 and the FGFR3/FGFR4 is given as greater than 10. For the same molecule, in test [1] (setting [4]), the FGFR1/FGFR4 is given as greater than 25, the FGFR2/FGFR4 is recorded as greater than 25 and the FGFR3/FGFR4 was greater than 25.

Turning to `COc1cc(OC)c(F)c(N2Cc3cnc(-c4cn(C)nc4C)cc3N(c3ccnnc3)C2=O)c1F` [Example 57, 3-(2,6-difluoro-3,5-dimethoxyphenyl)-7-(1,3-dimethyl-1H-pyrazol-4-yl)-1-(pyridazin-4-yl)-3,4-dihydropyrido[4,3-d]pyrimidin-2(1H)-one], in test [2], the FGFR1/FGFR3 was greater than 10 and the FGFR4/FGFR3 is listed as greater than 10.

As to `COc1cc(OC)c(F)c(N2Cc3cnc(-c4cn(C)nc4C)cc3N(c3ccc4ncsc4c3)C2=O)c1F` [Example 41, 1-(1,3-benzothiazol-6-yl)-3-(2,6-difluoro-3,5-dimethoxyphenyl)-7-(1,3-dimethyl-1H-pyrazol-4-yl)-3,4-dihydropyrido[4,3-d]pyrimidin-2(1H)-one], in test [2], the FGFR1/FGFR3 is recorded as greater than 1 and the FGFR4/FGFR3 was greater than 5.

Regarding `COc1cc(OC)c(F)c(N2Cc3cnc(-c4cn(C)nc4C)cc3N(C3(C#N)CC3)C2=O)c1F` [Example 91, 1-(3-(2,6-difluoro-3,5-dimethoxyphenyl)-7-(1,3-dimethyl-1H-pyrazol-4-yl)-2-oxo-3,4-dihydropyrido[4,3-d]pyrimidin-1(2H)-yl)cyclopropanecarbonitrile], in test [2], the FGFR1/FGFR3 is reported as greater than 5 and the FGFR4/FGFR3 was greater than 5.
